The record followed here is patent US6913768B2, “Sustained release delivery of amphetamine salts” (Shire Laboratories, Inc., priority 2002, dated 2005).

By Cmax is commonly meant the highest concentration seen after dosing. What is called Tmax is the time at which the peak concentration occurs. Broadly, the AUC is concentration integrated over time.

The data set in a line: Single-dose mean plasma concentration profile of […] XR 20 mg (FIG. 1). It counts as in vivo. As to conditions: human, oral, […] XR 20 mg single dose, mean over about 20 patients. How it is done:
See, e.g., Fundamentals of Clinical Pharmacokinetics. J. G. Wagner, Drug Intelligence Publications, Inc., Hamilton, Ill., 1975; Guidance for Industry, Bioavailability and Bioequivalence Studies for Orally Administered Drug Products-General Considerations, FDA, CDER. October 2000.
Individual patients were treated with […] XR®, 20 mg. Subjects received either one single dose administered with food or one single dose administered following a 10-hour overnight fast through continued fast 3.5 hours post dosing. The mean plasma concentration profile of FIG. 1 was obtained from averaging such individuals' curves.

In the case of `C[C@H](N)Cc1ccccc1` [d-amphetamine], the peak level (Cmax) was 28 ng/mL and the Tmax was determined as 7.1 h. In addition, under “read-out: AUC (time zero to infinity)”, the AUC amounted to 557 ng·h/mL.
